Key:
[1] = target: TylF (Streptomyces fradiae, UniProt Q9S4D5); test: biochemical
[2] = target: TylF (Streptomyces fradiae, UniProt Q9S4D5, Y139F); test: biochemical
Sequence of TylF (Streptomyces fradiae, UniProt Q9S4D5, Y139F) (Q9S4D5 whole entry Y139F): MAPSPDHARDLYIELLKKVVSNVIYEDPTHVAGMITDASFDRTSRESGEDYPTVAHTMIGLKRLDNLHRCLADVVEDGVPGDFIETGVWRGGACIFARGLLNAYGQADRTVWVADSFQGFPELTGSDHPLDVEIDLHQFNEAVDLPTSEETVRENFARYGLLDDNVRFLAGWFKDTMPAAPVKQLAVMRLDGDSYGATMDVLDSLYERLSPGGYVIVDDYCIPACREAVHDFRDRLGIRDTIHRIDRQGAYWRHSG

Sequence of TylF (Streptomyces fradiae, UniProt Q9S4D5) (Q9S4D5 whole entry): as the sequence (Q9S4D5 whole entry Y139F) above, with F139Y counted along it

C[S+](CC[C@H](N)C(=O)O)C[C@H]1O[C@@H](n2cnc3c(N)ncnc32)[C@H](O)[C@@H]1O (some centres unmarked) [SAM]
Kd [1]: 162 ± 91.6 µM
Kd [2]: 265 ± 24.3 µM

Reference: paper PMC10172623 (Computational and Structural Biotechnology Journal, 2023)
